{"source": "patent US6353028B2", "about": "“Composition and method for topically treating Peyronie's Disease, Dupuytren's hand contracture, Ledderhose Fibrosis, erectile dysfunction arising from plaque accumulations, and scarring” (priority 1998, dated 2002)", "origin": "cited, not measured here", "system": "Peyronie's disease", "settings": "intra-lesional injection"}
{"smiles": "COc1ccc(CCN(C)CCCC(C#N)(c2ccc(OC)c(OC)c2)C(C)C)cc1OC", "note": "(stereo not shown) [Verapamil]", "values": [{"measurement": "success of intra-lesional injections in Peyronie's disease", "result": "very limited success"}]}
